Our source for the IC50 values is PMC9267852, “Hepatic Expression of the Na^+-Taurocholate Cotransporting Polypeptide Is Independent from Genetic Variation” (International Journal of Molecular Sciences, 2022).

Positions count from the first letter of the chain named.

Holding throughout (assay type): cell-based
The target in assay [1] is T1, Na+-taurocholate cotransporting polypeptide (NTCP) (Homo sapiens, UniProt Q14973, R185C).
T1 construct: gene SLC10A1; NTCP-p.R185C, stably expressed in HEK cells
T1 sequence (Q14973 1-349 R185C): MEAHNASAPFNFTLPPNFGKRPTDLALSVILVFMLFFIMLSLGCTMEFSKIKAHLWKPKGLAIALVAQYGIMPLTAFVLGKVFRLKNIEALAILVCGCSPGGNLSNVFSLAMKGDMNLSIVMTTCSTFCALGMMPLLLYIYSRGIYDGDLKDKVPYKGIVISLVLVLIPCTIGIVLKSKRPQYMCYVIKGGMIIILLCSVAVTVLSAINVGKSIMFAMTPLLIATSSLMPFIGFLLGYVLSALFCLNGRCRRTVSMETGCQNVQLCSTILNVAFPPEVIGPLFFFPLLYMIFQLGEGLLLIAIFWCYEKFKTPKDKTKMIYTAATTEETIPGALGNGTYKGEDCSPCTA
The experiment in a line: inhibition of [3H]taurocholate uptake in NTCP-R185C-expressing HEK cells; sodium-dependent remdesivir uptake Km […].

Assay [2] has as its target T2, Na+-taurocholate cotransporting polypeptide (NTCP) (Homo sapiens, UniProt Q14973).
T2 construct: gene SLC10A1
T2 sequence (Q14973 1-349): T1 sequence (Q14973 1-349 R185C) with C185R
Nature of the assay: inhibition of [3H]taurocholate uptake in NTCP-expressing HEK cells; remdesivir also taken up sodium-dependently (Km […]).

The target in assay [3] is T3, Na+-taurocholate cotransporting polypeptide (NTCP) (Homo sapiens, UniProt Q14973, S213R).
T3 construct: gene SLC10A1; NTCP-p.S213R, stably expressed in HEK cells
T3 sequence (Q14973 1-349 S213R): T1 sequence (Q14973 1-349 R185C) with C185R, S213R
The experiment in a line: inhibition of [3H]taurocholate uptake in NTCP-S213R-expressing HEK cells; sodium-dependent remdesivir uptake Km […].

Broadly, the IC50 is the concentration at which inhibition is half-maximal.

Take `CCC(CC)COC(=O)[C@H](C)N[P@](=O)(OC[C@H]1O[C@@](C#N)(c2ccc3c(N)ncnn23)[C@H](O)[C@@H]1O)Oc1ccccc1` [remdesivir]: the half-inhibitory concentration (IC50) amounted to 65 µM in assay [1], 90.3 µM in assay [2] and 63.1 µM in assay [3].
